Experimental data: patent publication US10344065B2, “Method for treating Alzheimer's disease and method for downregulating protein aggregation in brain” (National Cheng Kung University, priority 2017, dated 2019)

Assays:
3×Tg mice = test: Novel object recognition test; format: in vivo, mouse; conditions: vs sham
Description: All experiments were carried out in accordance with the National Institutes of Health Guidelines for animal research (Guide for the Care and Use of Laboratory Animal) and approved by the National Cheng Kung University Institutional Animal Care and Use Committee. The 3×Tg mice (B6; 129-Psen1tm1Mpm Tg[APPSwe, tauP301L]1Lfa/Mmjax), were obtained from the Jackson Laboratory (Bar Harbor, […], USA) and housed in a controlled room (temperature 23±1° C., humidity 55±5%, 12-hour light/12-hour dark cycle, light cycle begins at 06:00) located in the Laboratory Animal Center of National Cheng Kung University (Tainan, Taiwan) with unrestricted access to food and water. All mice were genotyped using a protocol provided by the Jackson Laboratory. The 3×Tg mice develop intracellular Aβ immuno-positive staining as early as 3-4 months and aggregates of hyperphosphorylated tau in the hippocampus around 12 months of age. Impaired synaptic transmission and long-term potentiation are evident about 6 months of age. At the age of 10 months (body weight, 31˜35 g), five 3×Tg mice received four consecutive weekly injections of Zfra4-10 solution (2 mM in phosphate buffered saline [PBS], 100 μL each injection) from the tail veins. […]
The experiment was performed from 6 PM each day. […] The cumulative times spent by the mouse in exploring each of the objects were recorded during a 5-minute period. […] The times spent in exploring each object during a 5-minute period were recorded in either the STM or the LTM test. […]
All experimental results were represented as mean±standard error of the mean. The results for novel object recognition test, probe test of Morris water maze, relative ventricle area, and relative optical density of pS412-tau immunoreactivity were analyzed by two-tailed Mann-Whitney test, whereas the Aβ-positive cell number was analyzed by two-tailed unpaired t-test. The Morris water maze learning section results were analyzed using a repeated mixed-model analysis of variance with training session as within-subject factor and the Zfra injection as between-subject factor. […]

WWOX = WWOX phosphorylation in melanoma-bearing nude mice; format: in vivo, mouse; conditions: B16F10-bearing nude mice, n=3
Description: FIG. 4 includes photos showing that Zfra suppresses melanoma B16F10-mediated neurodegeneration in the hippocampus. Nude mice were preinjected with 100 μL, of sterile Milli-Q water or Zfra4-10 (1 mM in sterile water) in 3 consecutive weeks. After treatment for a week, these mice were inoculated with melanoma B16F10 cells on both flanks (2×10^5 cells in 100-μL, PBS). Mice were sacrificed when the tumor sizes grew up to 2000-3000 mm^3 in about a month. (A) Zfra blocked neurodegeneration in the hippocampus (top panel) and prevented the formation of TPC6AΔ plaques in the cortex (bottom panel), which negatively correlates with pS14-WWOX expression. Note the presence of condensed apoptotic nuclei in the hippocampal neurons in the control mice, (B) Metastasis of B16F10 cells to the lung was blocked in Zfra-treated mice. Compared to controls, Zfra suppressed p-S14WWOX expression in the lung by ˜72% suppression (three sections). […] (C and D) The non-spatial learning and memory were determined by novel object recognition task for both 3×Tg and Wwox+/− mice. […] Also, see data in FIG. 1.
Six- to eight-week-old male nude (BALB/cAnN.Cg-Foxn1^nu/CrlNarl) mice (National Laboratory Animal Center, Taiwan) were used. Mice were intravenously injected into tail veins with 100 μL of Zfra1-31 or Zfra4-10 (2 mM), or sterile water. After injection for 1-8 weeks, mouse melanoma B16F10 or human glioma 13-06-MG cells (2-2.5×10^6 cells/100-μL saline) were then inoculated in subcutaneous sites at both flanks. Tumor volumes were measured daily and calculated using the equation, D×(d)^2/2, where D and d are the major and minor diameters, respectively. At indicated time point, mouse organs, including brain, lung, spleen, and liver, were harvested and fixed with 4% paraformaldehyde. IHC was carried out using indicated specific antibodies to determine protein expression in tissues and organs. Where indicated, TMR-Zfra was used to stain spleen, brain, and lung tissues. Z-cell distribution in organs was determined under fluorescence microscopy.

RRSSSCK [Zfra4-10, truncated zinc finger-like peptide, amino acids 4-10 of Zfra]
exploring times of the novel object, short-term memory task (3×Tg mice; 3×Tg mice, 2 hours after acquisition, P=0.074): marginal, but not significant, increase | novel object exploring times, long-term memory task (3×Tg mice; 3×Tg mice, 24 hours after acquisition, P=0.008): significantly higher | exploring times on each object, acquisition phase (3×Tg mice; 11-month-old 3×Tg mice, one week after four weekly tail vein injections (2 mM, 100 μL), 5-minute acquisition, P>0.5): approximately equal exploring times on each object | suppression of Ser14 phosphorylation of WWOX (pS14-WWOX) (WWOX; brain (hippocampus)): 87±5% | suppression of Tyr33 phosphorylation in WWOX (WWOX; brain): 2±6% | suppression of phosphorylation in Tyr33 in WWOX in the lung (WWOX; lung): 5±3%
